Experimental data as given in patent US10585087B2, “Method for evaluating and selecting agent for suppressing odors of sulfide compounds” (KAO CORPORATION, priority 2015, dated 2020).

How the values were obtained:
[1] = molecular target: T1, olfactory receptor OR4S2 (Homo sapiens, UniProt Q8NH73); assay: Luciferase reporter gene assay: response of olfactory receptor to sulfide compound; assay type: cell-based; details: for response of olfactory receptor OR4S2 (fold increase) in screen of 428 olfactory receptors / concentration dependence of the response of OR4S2: HEK293 cells expressing OR4S2; for response of olfactory receptor OR4S2 (fold increase) in screen of 428 olfactory receptors: 100 μM sulfide compound, FIG. 1; for concentration dependence of the response of OR4S2: different concentrations, FIG. 2
T1 construct: expressed in transfected cells; host or cells: HEK293
T1 sequence (Q8NH73 1-311): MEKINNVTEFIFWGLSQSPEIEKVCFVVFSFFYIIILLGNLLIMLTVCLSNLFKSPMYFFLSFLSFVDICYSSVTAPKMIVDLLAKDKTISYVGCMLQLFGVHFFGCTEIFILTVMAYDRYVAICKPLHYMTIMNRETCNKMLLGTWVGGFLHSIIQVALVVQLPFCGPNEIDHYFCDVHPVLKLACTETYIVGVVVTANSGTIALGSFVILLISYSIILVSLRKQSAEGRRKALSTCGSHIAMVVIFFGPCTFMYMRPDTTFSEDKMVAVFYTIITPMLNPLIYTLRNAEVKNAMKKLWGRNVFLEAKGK
Excerpt: A human olfactory receptor was cloned by using the PCR method with human genomic DNA (G1521: Promega Corporation) as a template on the basis of sequence information registered in GenBank. Each gene amplified through the PCR method was incorporated into a pENTR vector (Invitrogen) in accordance with the manual, and recombined, by utilizing the NotI and AscI sites present in the pENTR vector, with a pME18S vector at the NotI and AscI sites produced in the downstream of the Flag-Rho tag sequence of the pME18S vector.
An RTP1S gene (SEQ ID NO: 3) encoding RTP1S (SEQ ID NO: 4) was incorporated into the pME18S vector at the EcoRI and XhoI sites thereof.
HEK293 cells expressing any one of 428 human olfactory receptors were produced. A reaction solution with a composition shown in Table 2 was prepared and left to stand in a clean bench for 15 minutes, and then added to each well of a 96-well plate (BD Biosciences). Subsequently, 90 μL of HEK293 cells (3×10^5 cells/cm^2) was seeded in each well, and cultured in an incubator retained at 37° C. and 5% CO2 for 24 hours. As a control, cells with conditions for no expression of an olfactory receptor (Mock) were prepared and used in an experiment.
An olfactory receptor expressed on HEK293 cells increases the intracellular cAMP level through conjugation with the intracellular Gαs followed by resulting activation of adenylate cyclase. For smell response measurement in this study, luciferase reporter gene assay was used in which increase of the intracellular cAMP level is monitored as an emission value derived from a firefly luciferase gene (fluc2P-CRE-hygro). Transgenesis was simultaneously performed by using a product with a sea pansy luciferase gene fused to the downstream of the CMV promoter (hRluc-CMV), and the resultant was used as an internal standard to correct errors of transgenesis efficiency and the number of cells.
The medium was removed from the culture prepared in the above (3), and 75 μL of a solution containing a sulfide compound prepared with DMEM (NACALAI TESQUE, INC.) was added. The sulfide compound was 100 μM of dimethyl disulfide (DMDS) or dimethyl trisulfide (DMTS). The cells were cultured in a CO2 incubator for 3 hours to allow the luciferase gene to be sufficiently expressed in the cells. Measurement of the activity of luciferase was performed by using a Dual-Glo™ luciferase assay system (Promega Corporation) in accordance with an operation manual of the product. For each stimulus condition, the value fLuc/hRluc was calculated by dividing the emission value derived from firefly luciferase by the emission value derived from sea pansy luciferase. The value fLuc/hRluc derived from firefly luciferase and induced by a stimulus of a sulfide compound was divided by the value fLuc/hRluc for cells without a stimulus of a sulfide compound to calculate a fold increase, and the fold increase was used as an indicator of intensity of response.

[2] = molecular target: T1, olfactory receptor OR4S2; assay: Luciferase reporter gene assay: suppression of OR4S2 response to DMDS or DMTS by test substance; assay type: cell-based; details: for response (Fold increase) of OR4S2 to DMTS in the presence of test substance: 300 μM DMTS, test substance 100 μM, FIG. 6; for response (Response %) of OR4S2 to DMDS in the presence of test substance: 1 mM DMDS, test substance 0 to 3000 μM, FIG. 5
Procedure: By using the same procedure as in Example 1 (1) to (3), HEK293 cells expressing OR4S2 (SEQ ID NO: 2) were prepared. The response of the olfactory receptor to DMDS (the value fLuc/hRluc) was measured in the presence and absence of a test substance by using luciferase reporter gene assay in accordance with the procedure in Example 1 (4). The value fLuc/hRluc induced by a stimulus of single DMDS, (X), the value fLuc/hRluc for cells without a stimulus of DMDS, (Y), and the value fLuc/hRluc induced by a co-stimulus of DMDS and a test substance, (Z), were determined, and the intensity of the response (Response (%)) of the receptor to DMDS in the presence of a test substance was determined by using the following formula. Response (%)=(Z−Y)/(X−Y)×100 The experiment was performed independently three times, and the average value of the experiments was determined. The concentration of DMDS to be added to a culture was set at 1 mM, and the concentration of a test substance to be added was changed in the range of from 0 to 3000 μM.
For the response to DMTS, the value fLuc/hRluc to a stimulus of single DMTS, (X′), was divided by the value fLuc/hRluc for cells without a stimulus of DMTS, (Y), and the value obtained by the division, (X′/Y), was set as a value of the response to DMTS (Fold increase). To compare the effect of a test substance on the response to DMTS, the value fLuc/hRluc induced by a co-stimulus of DMTS and a test substance, (Z′), was similarly divided by the value fLuc/hRluc for cells without a stimulus, (Y), to calculate (Z′/Y) as Fold increase. The experiment was performed independently three times, and the average value of the experiments was determined. The concentration of DMTS to be added to a culture was set at 300 μM, and the concentration of a test substance to be added was set at 100 μM.

[3] = Sensory test of odor-suppressing effect for sulfide compounds; assay type: in vivo; details: for odor intensity of DMTS in sensory test: 0.01% (v/v) DMTS and 0.1% (v/v) test substance in mineral oil, 11 evaluators, FIG. 7B; for odor intensity of DMDS in sensory test: 0.1% (v/v) DMDS and 0.1% (v/v) test substance in mineral oil, 10 evaluators, FIG. 7A
Procedure: For each of DMDS, cis-4-heptenal, and 1,4-cineol, a 0.1% (v/v) solution in mineral oil was prepared. For DMTS, a 0.01% (v/v) solution in mineral oil was prepared. Two cotton balls were put in a 20 mL glass bottle (Maruemu Corporation, No. 6), and one cotton ball was impregnated with 30 μL of the DMDS or DMTS solution, and the other cotton ball was impregnated with 30 μL a solution of one of the OR4S2 antagonists. The glass bottle containing the cotton balls was covered with a lid, and left to stand at 37° C. for 1 hour, and thereafter used as a test sample for a sensory test. Glass bottles containing only a cotton ball impregnated with the DMDS or DMTS solution were prepared as reference samples, and a glass bottle containing only a cotton ball impregnated with mineral oil (Vehicle) was prepared as a control sample.
A sensory test was performed in a single-blinded mode with 10 evaluators for DMDS and 11 evaluators for DMTS. The test was initiated after two o'clock pm, which was 1.5 hours or longer after a meal. To prevent diffusion of a smell, the test was performed essentially under a fume hood. To eliminate the influence of adaptation to odors of sulfide compounds, the evaluators were appropriately checked for the intensity of recognition to the odor of DMDS or DMTS in the test, and rested as necessary. The evaluators were separated into two groups, and one group evaluated the odor-suppressing effect for DMDS or DMTS with respect to cis-4-heptenal and 1,4-cineol, in the order presented, and the other group evaluated it with respect to 1,4-cineol and cis-4-heptenal, in the order presented. Each test sample was replaced with another one after evaluation by each of three evaluators.
In evaluation of odors of test samples, the following criteria in five grades were set for each evaluator: “odor of DMDS (or DMTS) was 1: unidentifiable, 2: perceivable, 3: easily identifiable, 4: strong, 5: intolerably strong”, and the evaluators rated the odor intensity of DMDS (or DMTS) for each test sample in nine grades from 1.0 to 5.0 at an interval of 0.5, where the odor intensity of single DMDS (or DMTS) was assumed as 3. The average value of the evaluation results by the evaluators was determined.

Row | SMILES | response of olfactory receptor OR4S2 (fold increase) in screen of 428 olfactory receptors [1] | concentration dependence of the response of OR4S2 [1] | response (Fold increase) of OR4S2 to DMTS in the presence of test substance [2] | response (Response %) of OR4S2 to DMDS in the presence of test substance [2] | odor intensity of DMTS in sensory test [3] | odor intensity of DMDS in sensory test [3] | further results
1 | CSSC [DMDS, Dimethyl disulfide] | exhibits a specific response | in a concentration-dependent manner | – | – | – | – | –
2 | CSSSC [DMTS, Dimethyl trisulfide] | exhibits a specific response | in a concentration-dependent manner | – | – | – | – | –
3 | CC/C=C\CCC=O [cis-4-Heptenal, (Z)-Hept-4-enal] | – | – | suppressed the response of OR4S2 to DMTS | suppressed the response of OR4S2 to DMDS in a concentration-dependent manner | suppressed the odor intensity | suppressed the odor intensity | –
4 | CSC [dimethyl sulfide (DMS), Dimethylsulfide] | – | – | – | – | – | – | response of OR4S2 ([1]; concentration of 1 mM and 3 mM, FIG. 3): responded
5 | CC(C)C12CCC(C)(CC1)O2 [1,4-cineol, 1,4-Cineole] | – | – | suppressed the response of OR4S2 to DMTS | suppressed the response of OR4S2 to DMDS in a concentration-dependent manner | suppressed the odor intensity | suppressed the odor intensity | –
6 | CS [methylmercaptan, Methylmercaptan] | – | – | – | – | – | – | response of OR4S2 ([1]; 3 mM, FIG. 4): did not respond
